Laboratory results from US9682953B2, “Amide compounds, compositions and applications thereof” (Advinus Therapeutics Limited, priority 2011, dated 2017).
Read-outs that look alike come from different tables or passages of the source.

Assays:
[1] = target: human Fatty Acid Amide Hydrolase (FAAH) (Homo sapiens (Human), UniProt O00519); experiment: biochemical; settings: for IC50: read-out: hFAAH IC50
[2] = target: rat Fatty Acid Amide Hydrolase (FAAH) (Rattus norvegicus (Rat), UniProt P97612); experiment: FAAH in vitro fluorescence assay (AAMCA hydrolysis), rat enzyme; assay type: biochemical; settings: rat FAAH; for inhibition at 0.1 µM: read-out: rFAAH % inhibition at 100 nM; for IC50: read-out: rFAAH IC50
Method: Material and Reagents: All reagents were purchased from Sigma-Aldrich unless specified. […] Chaperone protein groEL-groES in pGRO7 plasmid (Takara Bio Inc, Japan) was co-expressed with Fatty Acid Amide Hydrolase (FAAH) to improve solubility of the protein expressed in E coli. […] Briefly, the bacterial cultures in Luria Broth (2 L) were induced with arabinose (2 mM) and Isopropyl (β-D-1-thiogalactopyranoside, IPTG (1 mM), for 20 h at room temperature. The cultures were centrifuged at 1200×g for 10 min and the cell pellet was resuspended in 100 mL buffer containing of 20 mM NaPi (pH 7.4), 100 mM NaCl, Benzonase (500u), Aprotinin (1 μg/mL) and Leupeptin (1 μg/mL). Cells were lyzed by sonication (Amp 20%, Pulse 15 s×15, on ice) and the cell debris removed by centrifugation at 5000×g for 20 min. The supernatant was enriched via ultracentrifugation at 100,000×g for 1 h and the cell pellet was resuspended in 16 mL buffer containing 20 mM NaPi (pH 7.8), 500 mM NaCl, 1% Triton X-100. The resuspended cell extract was subjected to ultra-centrifugation at 100,000×g for 1 h and the enriched supernatant was used in the in vitro assay. All protein extraction steps were carried out on ice or at 4° C.
The assay was carried out in 200 μL volume in a 96-well black polystyrene plate (Greiner Bio-one, Germany). Each reaction consisted of human Fatty Acid Amide Hydrolase (FAAH) protein and 10 μM AAMCA in assay buffer containing 50 mM HEPES, 1 mM EDTA and 0.1% BSA, pH 7.4. The reaction was incubated with 2 μL of varying concentrations of inhibitor in DMSO (final concentration of DMSO 1%) with shaking for 1 min and monitored for increase in fluorescence in kinetic mode for 50 min. […] Rate of reaction as a function of the concentration of the inhibitor was used to determine the IC50 of the inhibitors. Data was analyzed using GraphPad Prism 5 (GraphPad Software Inc., San Diego, Calif.). The activity of the compounds for rat Fatty Acid Amide Hydrolase (FAAH) was evaluated as described above with rat Fatty Acid Amide Hydrolase (FAAH) protein and 10 μM AAMCA substrate.

Sequence of rat Fatty Acid Amide Hydrolase (FAAH) (P97612 30-579): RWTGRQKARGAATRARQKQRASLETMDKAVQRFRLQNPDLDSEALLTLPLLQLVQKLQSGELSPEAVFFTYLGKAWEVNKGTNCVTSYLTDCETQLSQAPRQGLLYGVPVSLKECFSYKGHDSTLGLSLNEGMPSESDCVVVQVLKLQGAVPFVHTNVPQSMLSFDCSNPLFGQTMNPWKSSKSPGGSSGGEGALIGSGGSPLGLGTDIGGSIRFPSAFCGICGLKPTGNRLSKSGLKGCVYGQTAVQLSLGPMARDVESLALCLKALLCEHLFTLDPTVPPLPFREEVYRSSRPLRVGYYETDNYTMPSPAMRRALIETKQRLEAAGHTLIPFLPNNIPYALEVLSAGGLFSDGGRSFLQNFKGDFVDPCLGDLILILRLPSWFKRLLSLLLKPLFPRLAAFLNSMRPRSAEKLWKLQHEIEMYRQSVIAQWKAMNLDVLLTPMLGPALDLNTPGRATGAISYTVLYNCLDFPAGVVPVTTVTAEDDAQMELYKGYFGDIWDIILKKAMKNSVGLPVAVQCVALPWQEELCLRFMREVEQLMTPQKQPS
Sequence of human Fatty Acid Amide Hydrolase (FAAH) (O00519 30-579): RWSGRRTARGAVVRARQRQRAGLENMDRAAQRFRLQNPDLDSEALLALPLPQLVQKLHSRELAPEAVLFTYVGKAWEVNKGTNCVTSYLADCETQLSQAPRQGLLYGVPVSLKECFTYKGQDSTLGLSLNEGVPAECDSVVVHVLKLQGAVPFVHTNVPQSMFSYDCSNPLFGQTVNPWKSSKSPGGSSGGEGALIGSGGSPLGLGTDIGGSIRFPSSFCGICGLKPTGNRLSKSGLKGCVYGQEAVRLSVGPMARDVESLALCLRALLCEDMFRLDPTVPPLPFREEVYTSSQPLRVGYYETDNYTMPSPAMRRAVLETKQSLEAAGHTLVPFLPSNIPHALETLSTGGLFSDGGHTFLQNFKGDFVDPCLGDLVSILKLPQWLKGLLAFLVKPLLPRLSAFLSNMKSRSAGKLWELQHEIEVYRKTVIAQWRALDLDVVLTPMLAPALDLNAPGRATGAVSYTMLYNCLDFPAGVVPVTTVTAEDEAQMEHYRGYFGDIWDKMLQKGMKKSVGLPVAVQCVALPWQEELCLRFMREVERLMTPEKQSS

Cc1ccc(C(=O)NC2CCC(=Cc3cccc(Oc4ccc(C(F)(F)F)cn4)c3)CC2)c(C)n1 (stereo not drawn) [Example 2.A-37, 2,6-Dimethyl-N-[4-[[3-[[5-(trifluoromethyl)-2-pyridyl]oxy]phenyl]methylene]cyclohexyl]pyridine-3-carboxamide]
IC50 ([1]; human FAAH): 57 nM
rFAAH % inhibition at 100 nM ([2]; 100 nM (tier I)): No inhibition at 100 nM

Cc1n[nH]c(C(C)C)c1C(=O)NC1CCC(=Cc2cccc(Oc3ccc(C(F)(F)F)cn3)c2)CC1 (stereo not drawn) [Example 2.A-38, 5-Isopropyl-3-methyl-N-[4-[[3-[[5-(trifluoromethyl)-2-pyridyl]oxy]phenyl]methylene]cyclohexyl]-1H-pyrazole-4-carboxamide]
inhibition at 0.1 µM ([1]; read-out: hFAAH % inhibition at 100 nM, human FAAH, 100 nM (tier I)): 20%
inhibition at 0.1 µM ([2]; 100 nM (tier I)): 54%

CC(C)c1[nH]ncc1C(=O)NC1CCC(=Cc2cccc(Oc3ccc(C(F)(F)F)cn3)c2)CC1 (stereo not drawn) [Example 2.A-39, 5-Isopropyl-N-[4-[[3-[[5-(trifluoromethyl)-2-pyridyl]oxy]phenyl]methylene]cyclohexyl]-1H-pyrazole-4-carboxamide]
IC50 ([1]; human FAAH): 63 nM
IC50 [2]: 30 nM

O=C(NC1CCC(=Cc2cccc(Oc3ccc(C(F)(F)F)cn3)c2)CC1)c1ccc(C2CC2)nc1 (stereo not drawn) [Example 2.A-42, 6-Cyclopropyl-N-[4-[[3-[[5-(trifluoromethyl)-2-pyridyl]oxy]phenyl]methylene]cyclohexyl]pyridine-3-carboxamide]
IC50 ([1]; human FAAH): 13 nM
IC50 [2]: 14 nM

CCc1ccc(C(=O)NC2CCC(=Cc3cccc(Oc4ccc(C(F)(F)F)cn4)c3)CC2)cn1 (stereo not drawn) [Example 2.A-43, 6-Ethyl-N-[4-[[3-[[5-(trifluoromethyl)-2-pyridyl]oxy]phenyl]methylene]cyclohexyl]pyridine-3-carboxamide]
IC50 ([1]; human FAAH): 4 nM
IC50 [2]: 18 nM

O=C(NC1CCC(=Cc2cccc(Oc3ccc(C(F)(F)F)cn3)c2)CC1)c1ccc(-c2cc[nH]n2)nc1 (stereo not drawn) [Example 2.B-4, 6-(1H-Pyrazol-3-yl)-N-[4-[[3-[[5-(trifluoromethyl)-2-pyridyl]oxy]phenyl]methylene]cyclohexyl]pyridine-3-carboxamide]
IC50 ([1]; human FAAH): 2 nM
IC50 [2]: 11 nM

O=C(NC1CCC(=Cc2cccc(Oc3ccc(C(F)(F)F)cn3)c2)CC1)c1ccc(-c2cn[nH]c2)nc1 (stereo not drawn) [Example 2.B-5, 6-(1H-Pyrazol-4-yl)-N-[4-[[3-[[5-(trifluoromethyl)-2-pyridyl]oxy]phenyl]methylene]cyclohexyl]pyridine-3-carboxamide]
IC50 ([1]; human FAAH): 2 nM
IC50 [2]: 9 nM

Cc1cnn(-c2ccc(C(=O)NC3CCC(=Cc4cccc(Oc5ccc(C(F)(F)F)cn5)c4)CC3)cn2)c1 (stereo not drawn) [Example 2.B-6, 6-(4-Methylpyrazol-1-yl)-N-[4-[[3-[[5-(trifluoromethyl)-2-pyridyl]oxy]phenyl]methylene]cyclohexyl]pyridine-3-carboxamide]
IC50 ([1]; human FAAH): 7 nM
IC50 [2]: 21 nM

O=C(NC1CCC(=Cc2cccc(Oc3ccc(C(F)(F)F)cn3)c2)CC1)c1cncc(-n2cccn2)c1 (stereo not drawn) [Example 2.B-7, 5-Pyrazol-1-yl-N-[4-[[3-[[5-(trifluoromethyl)-2-pyridyl]oxy]phenyl]methylene]cyclohexyl]pyridine-3-carboxamide]
IC50 ([1]; human FAAH): 6 nM
IC50 [2]: 85 nM

O=C(NC1CCC(=Cc2cccc(Oc3ccc(C(F)(F)F)cn3)c2)CC1)c1ccc(-n2cc(Cl)cn2)nc1 (stereo not drawn) [Example 2.B-8, 6-(4-Chloropyrazol-1-yl)-N-[4-[[3-[[5-(trifluoromethyl)-2-pyridyl]oxy]phenyl]methylene]cyclohexyl]pyridine-3-carboxamide]
IC50 ([1]; human FAAH): 5 nM
IC50 [2]: 21 nM

Cc1ccn(-c2ccc(C(=O)NC3CCC(=Cc4cccc(Oc5ccc(C(F)(F)F)cn5)c4)CC3)cn2)n1 (stereo not drawn) [Example 2.B-9, 6-(3 -Methylpyrazol-1-yl)-N-[4-[[3-[[5-(trifluoromethyl)-2-pyridyl]oxy]phenyl]methylene]cyclohexyl]pyridine-3-carboxamide]
IC50 ([1]; human FAAH): 9 nM
IC50 [2]: 22 nM

Cc1n[nH]c(C)c1-c1ccc(C(=O)NC2CCC(=Cc3cccc(Oc4ccc(C(F)(F)F)cn4)c3)CC2)cn1 (stereo not drawn) [Example 2.B-11, 6-(3,5-Dimethyl-1H-pyrazol-4-yl)-N-[4-[[3-[[5-(trifluoromethyl)-2-pyridyl]oxy]phenyl]methylene]cyclohexyl]pyridine-3-carboxamide]
IC50 ([1]; human FAAH): 17 nM
IC50 [2]: 52 nM

O=C(NC1CCC(=Cc2cccc(Oc3ccc(C(F)(F)F)cn3)c2)CC1)c1ccc(-n2cnnc2)nc1 (stereo not drawn) [Example 2.B-13, 6-(1,2,4-Triazol-4-yl)-N-[4-[[3-[[5-(trifluoromethyl)-2-pyridyl]oxy]phenyl]methylene]cyclohexyl]pyridine-3-carboxamide]
IC50 [1]: 2 nM
IC50 [2]: 14 nM

O=C(NC1CCC(=Cc2cccc(Oc3ccc(C(F)(F)F)cn3)c2)CC1)c1ccc(-n2ccnn2)nc1 (stereo not drawn) [Example 2.B-14, 6-(Triazol-1-yl)-N-[4-[[3-[[5-(trifluoromethyl)-2-pyridyl]oxy]phenyl]methylene]cyclohexyl]pyridine-3-carboxamide]
IC50 [1]: 2 nM
IC50 [2]: 11 nM

O=C(NC1CCC(=Cc2cccc(Oc3ccc(C(F)(F)F)cn3)c2)CC1)c1ccc(-n2nccn2)nc1 (stereo not drawn) [Example 2.B-15, 6-(Triazol-2-yl)-N-[4-[[3-[[5-(trifluoromethyl)-2-pyridyl]oxy]phenyl]methylene]cyclohexyl]pyridine-3-carboxamide]
IC50 ([1]; human FAAH): 3 nM
IC50 [2]: 9 nM

Nc1ccc(C(=O)NC2CCC(=Cc3cccc(Oc4ccc(C(F)(F)F)cn4)c3)CC2)cn1 (stereo not drawn) [Example 2.C-1, 6-Amino-N-[4-[[3-[[5-(trifluoromethyl)-2-pyridyl]oxy]phenyl]methylene]cyclohexyl]pyridine-3-carboxamide]
IC50 [1]: 5 nM
IC50 [2]: 31 nM

COc1ccc(C(=O)NC2CCC(=Cc3cccc(Oc4ccc(C(F)(F)F)cn4)c3)CC2)cn1 (stereo not drawn) [Example 2.C-2, 6-Methoxy-N-[4-[[3-[[5-(trifluoromethyl)-2-pyridyl]oxy]phenyl]methylene]cyclohexyl]pyridine-3-carboxamide]
IC50 [1]: 5 nM
IC50 [2]: 21 nM

O=C(NC1CCC(=Cc2cccc(Oc3ccc(C(F)(F)F)cn3)c2)CC1)c1cncc(O)c1 (stereo not drawn) [Example 2.C-4, 5-Hydroxy-N-[4-[[3-[[5-(trifluoromethyl)-2-pyridyl]oxy]phenyl]methylene]cyclohexyl]pyridine-3-carboxamide]
IC50 ([1]; human FAAH): 4 nM
IC50 [2]: 21 nM

Nc1ncc(C(=O)NC2CCC(=Cc3cccc(Oc4ccc(C(F)(F)F)cn4)c3)CC2)cn1 (stereo not drawn) [Example 2.C-6, 2-Amino-N-[4-[[3-[[5-(trifluoromethyl)-2-pyridyl]oxy]phenyl]methylene]cyclohexyl]pyrimidine-5-carboxamide]
IC50 [1]: 1 nM
IC50 [2]: 16 nM

O=C(NC1CCC(=Cc2cccc(Oc3ccc(C(F)(F)F)cn3)c2)CC1)c1cnc2[nH]ccc2c1 [Example 2.D-5, N-[4-[[3-[[5-(Trifluoromethyl)-2-pyridyl]oxy]phenyl]methylene]cyclohexyl]-1H-pyrrolo[2,3-b]pyridine-5-carboxamide]
IC50 [1]: 2 nM
IC50 [2]: 16 nM

O=C(NC1CCC(=Cc2cccc(Oc3ccc(C(F)(F)F)cn3)c2)CC1)c1c[nH]c2ccccc12 [Example 2.D-6, N-[4-[[3-[[5-(Trifluoromethyl)-2-pyridyl]oxy]phenyl]methylene]cyclohexyl]-1H-indole-3-carboxamide]
IC50 [1]: 10 nM
IC50 [2]: 87 nM

Cc1nc(Oc2cccc(C=C3CCC(NC(=O)c4ccc(N)nc4)CC3)c2)ccc1Cl (stereo not drawn) [Example 2.E-16, 6-Amino-N-[4-[[3-[(5-chloro-6-methyl-2-pyridyl)oxy]phenyl]methylene]cyclohexyl]pyridine-3-carboxamide]
IC50 ([1]; human FAAH): 3 nM
IC50 [2]: 24 nM

Cc1nc(Oc2cccc(C=C3CCC(NC(=O)c4ccc(N)nc4)CC3)c2)ccc1C(F)(F)F (stereo not drawn) [Example 2.E-17, 6-Amino-N-[4-[[3-[[6-methyl-5-(trifluoromethyl)-2-pyridyl]oxy]phenyl]methylene]cyclohexyl]pyridine-3-carboxamide]
IC50 [1]: 3 nM
IC50 [2]: 27 nM

Cc1nc(Oc2cccc(C=C3CCC(NC(=O)c4c[nH]nc4C(F)(F)F)CC3)c2)ccc1C(F)(F)F (stereo not drawn) [Example 2.E-18, N-[4-[[3-[[6-Methyl-5-(trifluoromethyl)-2-pyridyl]oxy]phenyl]methylene]cyclohexyl]-3-(trifluoromethyl)-1H-pyrazole-4-carboxamide]
IC50 ([1]; human FAAH): 13 nM
inhibition at 0.1 µM ([2]; 100 nM (tier I)): 55%
